The supplement of paper PMC10307832

Legend:
Assay in all cases: relative viability (nuclei count vs DMSO), 5 days (fraction); higher = more cells survive
[1] = compound: CCN(CC)CCNC(=O)c1c(C)[nH]c(/C=C2\C(=O)Nc3ccc(F)cc32)c1C [Sunitinib] + CC1(C)CCC(c2ccc(Cl)cc2)=C(CN2CCN(c3ccc(C(=O)NS(=O)(=O)c4ccc(N[C@H](CCN5CCOCC5)CSc5ccccc5)c(S(=O)(=O)C(F)(F)F)c4)cc3)CC2)C1 [Navitoclax] (partner 0.5 µM)
Procedure, shortened: (§1)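 Each reported value is a median over duplicate plates. It expresses relative viability: treated-well nuclei count divided by vehicle-well nuclei count. Lung cancer cell lines in 1536-well plates were dosed by pin tool a day after seeding, alone with one drug or with a fixed anchor-drug dose plus five library-drug doses (not always all listed) in √10 steps, and nuclei were counted after 5 days.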

[2] = compound: CCN(CC)CCNC(=O)c1c(C)[nH]c(/C=C2\C(=O)Nc3ccc(F)cc32)c1C [Sunitinib] + O=C(CCCCCCC(=O)Nc1ccccc1)NO [Vorinostat] (partner 1 µM)
Procedure, shortened: as §1

[3] = compound: CCN(CC)CCNC(=O)c1c(C)[nH]c(/C=C2\C(=O)Nc3ccc(F)cc32)c1C [Sunitinib] + Nc1nc2[nH]cc(CCc3ccc(C(=O)N[C@@H](CCC(=O)O)C(=O)O)cc3)c2c(=O)[nH]1 [Pemetrexed] (partner 0.2 µM)
Procedure, shortened: as §1

[4] = compound: CCN(CC)CCNC(=O)c1c(C)[nH]c(/C=C2\C(=O)Nc3ccc(F)cc32)c1C [Sunitinib] + C[C@]1(O)C[C@@H](c2nc(-c3ccc4ccc(-c5ccccc5)nc4c3)c3c(N)nccn32)C1 [Linsitinib] (partner 1 µM)
Procedure, shortened: as §1

Cell Line | relative viability ([1]; first compound 0.02 µM) | relative viability ([1]; first compound 0.06325 µM) | relative viability ([1]; first compound 0.2 µM) | relative viability ([1]; first compound 0.6325 µM) | relative viability ([1]; first compound 2 µM) | relative viability ([2]; first compound 0.02 µM) | relative viability ([2]; first compound 0.06325 µM) | relative viability ([2]; first compound 0.2 µM) | relative viability ([2]; first compound 0.6325 µM) | relative viability ([2]; first compound 2 µM) | relative viability ([3]; first compound 0.02 µM) | relative viability ([3]; first compound 0.06325 µM) | relative viability ([3]; first compound 0.2 µM) | relative viability ([3]; first compound 0.6325 µM) | relative viability ([3]; first compound 2 µM) | relative viability ([4]; first compound 0.02 µM) | relative viability ([4]; first compound 0.06325 µM) | relative viability ([4]; first compound 0.2 µM) | relative viability ([4]; first compound 0.6325 µM) | relative viability ([4]; first compound 2 µM)
NCI-H1734 | 0.785 | 0.815 | 0.954 | 0.846 | 0.906 | 0.694 | 0.91 | 1.05 | 0.782 | 0.782 | 0.406 | 0.426 | 0.396 | 0.411 | 0.411 | 0.844 | 0.95 | 0.936 | 0.944 | 0.756
NCI-H1755 | – | – | – | 1.04 | 0.993 | 0.735 | 0.878 | 0.897 | 0.758 | 0.842 | 0.427 | 0.502 | 0.636 | 0.407 | 0.52 | 0.996 | 0.98 | – | 0.979 | 0.941
NCI-H1793 | – | 0.528 | 0.438 | 0.458 | 0.472 | – | 0.867 | 0.989 | 0.91 | 0.825 | – | – | 1.29 | 0.949 | 0.831 | – | 0.856 | 1.08 | 0.838 | 0.93
NCI-H1915 | 0.764 | 0.765 | 0.833 | 0.815 | 0.805 | 0.483 | 0.538 | 0.562 | 0.5 | 0.505 | 0.428 | 0.486 | 0.499 | 0.527 | 0.484 | 1.08 | 1.15 | 1.14 | 1.09 | 1.11
NCI-H1944 | 1.03 | 1.04 | 1.1 | – | 1 | 0.547 | 0.736 | 0.659 | 0.625 | 0.559 | 0.588 | – | 0.772 | 0.684 | 0.655 | 1.12 | 1.18 | 1.28 | 1.25 | 1.16
NCI-H1975 | 1.07 | 1.15 | 1.11 | 1.12 | 1.12 | 0.693 | 0.714 | 0.77 | 0.733 | 0.666 | 0.289 | 0.318 | 0.317 | 0.298 | 0.305 | – | 0.969 | 1.01 | 0.986 | 0.868
NCI-H1993 | 0.923 | 1.01 | – | 0.872 | 0.905 | 0.857 | 0.727 | 0.911 | 0.747 | 0.9 | 0.436 | 0.563 | 0.584 | 0.55 | 0.575 | 0.711 | 0.744 | – | 0.8 | 0.664
NCI-H2009 | 1.18 | 1.19 | 1.26 | 1.16 | 1.26 | 0.725 | 0.765 | 0.828 | 0.746 | 0.723 | 1.03 | 1.01 | 1.1 | 1.08 | 1.12 | 1.2 | 1.18 | 1.2 | 1.31 | 1.27
NCI-H2023 | – | 1.05 | 1.11 | 1.06 | 0.975 | 0.575 | 0.585 | 0.906 | 0.812 | 0.488 | 0.235 | 0.307 | 0.265 | 0.301 | 0.222 | 0.709 | 0.594 | 0.754 | 0.788 | 0.582
NCI-H2085 | – | 1.19 | 1.23 | 1.18 | 1.28 | 0.784 | 0.827 | 0.84 | 0.813 | 0.807 | 0.909 | – | 1.04 | 0.952 | 0.87 | – | 0.923 | 0.939 | 0.945 | 1.02
NCI-H2087 | 0.976 | 0.99 | 1.14 | 1.01 | 0.969 | 0.748 | 0.664 | 0.667 | 0.715 | 0.712 | 0.711 | 0.693 | 0.559 | 0.626 | 0.693 | – | 1.01 | 0.938 | – | 0.889
NCI-H2126 | 0.833 | 0.865 | 0.904 | 0.871 | 0.798 | 0.73 | 0.906 | 0.857 | 0.808 | 0.84 | 0.628 | 0.826 | 0.777 | 0.786 | 0.751 | 0.719 | 0.695 | 0.74 | 0.759 | 0.717
NCI-H2228 | 0.87 | 0.792 | 1 | 0.96 | 0.524 | 0.412 | 0.705 | 0.626 | 1.03 | 0.764 | 0.343 | 0.313 | 0.37 | 0.349 | 0.349 | 0.611 | 0.584 | 0.841 | 0.808 | 0.349
NCI-H2347 | 0.888 | 0.825 | 0.836 | 0.817 | 0.818 | 0.648 | 0.653 | 0.723 | 0.554 | 0.757 | 0.415 | 0.446 | 0.419 | 0.44 | 0.458 | 0.93 | 0.991 | 1.11 | 0.991 | 0.978
NCI-H2405 | 0.985 | 0.892 | 0.909 | 1.14 | 0.977 | 1.09 | 0.991 | 1.12 | 1.08 | 1.04 | 1.07 | 1.1 | 1.21 | 1.13 | 1.13 | – | 1.02 | 0.976 | 1.08 | 0.917
NCI-H3122 | 0.975 | 1.04 | 1.07 | 1.04 | 0.983 | 0.958 | 1.02 | 1.03 | 1.05 | 1.02 | 0.201 | 0.215 | 0.202 | 0.185 | 0.205 | 1.02 | 1.07 | 1.04 | 0.992 | 1.05
PC-3 [JPC-3] | 0.843 | 0.906 | 0.846 | 0.879 | 0.797 | 0.919 | 0.805 | 0.858 | 0.904 | 0.928 | 1.35 | 1.08 | 1.13 | 1.11 | 1.03 | 0.978 | 0.975 | 0.951 | 0.987 | 0.881
